Results: patent US11352391B2, “Compositions for inducing urinary voiding and defecation” (Dignify Therapeutics, LLC, priority 2017, dated 2022)
Where a SMILES comes first, the peptide text is derived from it.

Experiments:
[1] = system: anesthetized acute spinal cord injured (aSCI) rat; assay: Colorectal (bowel) pressure manometry in anesthetized aSCI rats; assay type: in vivo; conditions: doses >10 μg/kg SC
Experimental: (§1) Methods: Studies were conducted in acutely spinal transected rats under isovolumetric bladder pressure recording conditions. Acute spinal cord injury (aSCI) is an in vivo model of isolated bladder smooth muscle contraction without reinforcement from micturition reflexes (i.e., myogenic, not neurogenic, contraction). Thus, it can be viewed as a model of severe bladder underactivity.
Animal preparation: In vivo studies were performed in anesthetized, acutely spinalized (T8-10 level) rats. Rats were anesthetized with urethane (1.2-1.4 g/kg subcutaneous injection). Surgical procedures were then performed with the addition of isoflurane anesthesia (0.05-1.5% in 02) as needed. […]
Bowel Contractility: Colorectal pressure manometry was performed via a latex balloon catheter (length 3-5 cm) inserted (˜4 cm) into the distal rectal/colon region. […] This allowed drug induced changes in colorectal pressure to be monitored. Parameters measured include peak colorectal pressure response, duration of time above baseline activity (in the 1st 5 min after drug administration), area under the curve (measured during the 1st 5 min after drug administration) and the number of contractile events after vehicle and drug administration. […]
(§2) Data analysis: Data were examined qualitatively and quantitatively. The mean, standard deviation and standard error of the mean were calculated using MICROSOFT EXCEL.

[2] = system: anesthetized acute spinal cord injured (aSCI) rat; assay: Isovolumetric bladder pressure in anesthetized acute spinal cord injured (aSCI) rats; assay type: in vivo
Experimental: as §1
Animal preparation: In vivo studies were performed in anesthetized, acutely spinalized (T8-10 level) rats. Rats were anesthetized with urethane (1.2-1.4 g/kg subcutaneous injection). Surgical procedures were then performed with the addition of isoflurane anesthesia (0.05-1.5% in 02) as needed.
For aSCI, the skin and muscle on the dorsal side at the level of the lower thoracic vertebrae were incised and the spinal cord was carefully exposed by a laminectomy and transected at the T8-T10 spinal level. Gelfoam was placed at the incision site and the muscle and skin overlying the vertebrae were closed with wound clips. The spinal cord was cut at least 60 min before starting the experimental protocol. […]
as §2

anesthetized dog [3] = assay: Colorectal pressure manometry in anesthetized dog; assay type: in vivo
Experimental: (§3) Animal preparation: Naïve beagle dogs were fasted for 12-24 hours and received a warm water enema the night prior to, and the morning of, the experiment to clear the rectum and lower colon of feces. The day of the experiment, a 20 gauge IV catheter (Terumo Surflo) was placed in the cephalic vein for anesthetic induction (propofol, 10 mg/kg; IV) and delivery of IV fluids (5-10 ml/kg/hr) and compounds. The sedated dog was intubated with a 5-6 Fr tracheal tube and was maintained on 2-3% isoflurane via a ventilator (15-25 breaths/min; tidal volume […]) for the remainder of the experiment.
Bowel contractility: For colorectal pressure manometry, an ˜3 inch balloon catheter was inserted into the rectum and secured to the tail with tape. This catheter was connected via a three-way stopcock to a pressure transducer (UTAH MEDICAL PRODUCTS; DelTran II) for pressure recording. Data were recorded using PowerLab/8SP acquisition system using LabChart software (version 7.3.7; ADINSTRUMENTS, Australia). Arterial pressure, ECG, temperature and blood oxygen saturation (spO2) were monitored throughout the experiment (MEDTRONIC LIFEPAK12). Dogs were recovered in a quiet room under veterinary supervision.

[4] = Pharmacokinetics in rat plasma after cassette IV bolus dosing; conditions: Sprague-Dawley, in vivo, iv
Experimental: The concentrations of compounds (SEQ ID NOS: 1-11) were measured in rat plasma after intravenous (IV) bolus dosing to determine pharmacokinetic profiles of individual compounds.
Animal preparation: In vivo studies were performed in anesthetized adult Sprague Dawley rats. Rats were anesthetized with urethane (1.2-1.4 g/kg subcutaneous injection). Surgical procedures were then performed with the addition of isoflurane anesthesia (0.05-1.5% in 02) as needed. A venous cannula was inserted into the jugular vein for intravenous (IV) administration of compounds.
In vivo dosing and plasma sampling: Compounds were divided into two groups (soluble and insoluble). Each group was dosed as a cassette in which four compounds (100 μg/kg each compound) were combined into a single IV bolus injection to anesthetized adult Sprague-Dawley rats. Soluble compounds were dissolved in saline. Insoluble compounds were dissolved in a 10% ethanol/saline solution. Rats were cassette dosed based on weight using 0.1 mg/mL solutions of individual compounds. Blood samples (700 μL) were collected using a carotid artery cannula into EDTA tubes containing ascorbic acid (final concentration 1%), and plasma was isolated.
Bioanalytical assay: A reversed-phase HPLC with Turbo Ion Spray MS/MS detection method was developed for bioanalysis. Mass spec transition and settings were individually optimized for each compound and then compounds were cassetted for HPLC method development and optimization. [^13C9; ^15N] [Lys5,MeLeu9,Nle10]-NKA(4-10) was used as an internal standard (IS). Analyte-to-IS peak area ratios for individual compounds were used to create linear calibration curves (1-20 ng/mL) using 1/×2 weighted least-squares regression analysis for evaluation of method linearity, precision and accuracy. For plasma concentration measurements, plasma samples were spiked with IS, processed by extraction, and analyzed using LC-MS/MS. Positive (M+H)+ ions for individual compounds and IS were monitored in MRM mode.

anesthetized dog [5] = assay: Urine leakage from the bladder in anesthetized dog; assay type: in vivo; conditions: IV 3 μg/kg and SC 30 μg/kg, data not shown
Experimental: as §3

[6] = target: human NK1 Receptor (hNK1R) (Homo sapiens, UniProt P25103); assay: [3H]-septide radioligand competition binding to human recombinant NK1Rs (CHO-hNK1 membranes); conditions: displacement of 5.0 nM [3H]-septide, CHO-hNK1 membranes; read-out: hNK1 binding Ki
Sequence of human NK1 Receptor (hNK1R) (P25103 whole entry): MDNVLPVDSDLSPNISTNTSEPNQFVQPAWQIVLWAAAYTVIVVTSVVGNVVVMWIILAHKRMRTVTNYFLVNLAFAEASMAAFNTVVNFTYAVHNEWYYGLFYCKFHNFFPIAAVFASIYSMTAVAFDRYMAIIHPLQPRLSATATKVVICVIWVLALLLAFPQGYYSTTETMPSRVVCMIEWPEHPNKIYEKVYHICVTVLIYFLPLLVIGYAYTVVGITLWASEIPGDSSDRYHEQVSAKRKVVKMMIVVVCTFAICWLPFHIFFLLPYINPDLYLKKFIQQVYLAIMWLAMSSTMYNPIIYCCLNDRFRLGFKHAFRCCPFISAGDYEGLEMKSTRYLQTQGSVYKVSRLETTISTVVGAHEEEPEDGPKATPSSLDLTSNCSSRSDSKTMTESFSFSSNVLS
Experimental: After removal of the supernatant the cell pellet was washed and collected by re-suspension in PBS and centrifugation.
Frozen pellets were thawed and homogenized in 10 volumes (w/v) of membrane preparation buffer (50 mM HEPES pH 7.4, 1 mM EDTA, 50 μg/mL bacitracin and protease inhibitors) using a Polytron Ultraturrax (twice for 15 s per cycle). […] Protein concentration was determined using BioRad Protein Assay (Milan, Italy) with a BSA standard curve.

half-life [4]: 12 to 72 s
level at 10 min ([4]; 100 ug/kg): < 1 ng/mL
Ki [6]: 331 nM
SMILES: CCCC[C@H](NC(=O)[C@H](CC(C)C)N(C)C(=O)CNC(=O)[C@@H](NC(=O)[C@H](Cc1ccccc1)NC(=O)[C@H](CCCNC(=N)N)NC(=O)[C@@H](N)CC(=O)O)C(C)C)C(N)=O [Compound B, Asp-Arg-Phe-Val-Gly-(NMe-Leu)-Nle-NH2] (HELM PEPTIDE1{D.R.F.V.G.[meL].[Nle].[am]}$$$$V2.0; N-terminus assumed)
bowel activity (bowel pressure AUC, first 5 min) [1]: measurable increases in bowel activity
onset of increase in bladder contraction pressure ([2]; SC, anesthetized aSCI rat): < 2 min
bladder activity (peak bladder pressure) ([2]; doses >10 μg/kg SC, aSCI rat): measurable increases in bladder activity
duration of colorectal pressure response (anesthetized dog [3]; IV bolus (B and E 3 μg/kg; G 3, 30 and 66 ug/kg)): approximately 7 minutes
duration of colorectal pressure response (anesthetized dog [3]; SC 30 μg/kg): over 30 minutes
onset of increase in colorectal pressure (anesthetized dog [3]; both IV bolus 3 μg/kg and SC 30 μg/kg): ≤ 3 min
urine leakage / induction of voiding (anesthetized dog [5]): leakage of urine from the bladder
